# Read-outs that look alike come from different tables or passages of the source.
# Target: T1, human recombinant GST-PAK1-KD protein (Homo sapiens, UniProt Q13153)
# T1 construct: residues #249-545 of human PAK1, UniProtKP/Swiss Q13153; His6 (N); made in house; host or cells: Sf9 insect cells, pAcGP67 baculovirus expression vector
# Test: GST-PAK1-KD (kinase domain) biochemical assay, microfluidic mobility shift
# [1] = Table II, PAK1 Ki class, read-out: Ki
# [2] = Table I, PAK1 Ki class, read-out: Ki
# T1 sequence (Q13153 249-545): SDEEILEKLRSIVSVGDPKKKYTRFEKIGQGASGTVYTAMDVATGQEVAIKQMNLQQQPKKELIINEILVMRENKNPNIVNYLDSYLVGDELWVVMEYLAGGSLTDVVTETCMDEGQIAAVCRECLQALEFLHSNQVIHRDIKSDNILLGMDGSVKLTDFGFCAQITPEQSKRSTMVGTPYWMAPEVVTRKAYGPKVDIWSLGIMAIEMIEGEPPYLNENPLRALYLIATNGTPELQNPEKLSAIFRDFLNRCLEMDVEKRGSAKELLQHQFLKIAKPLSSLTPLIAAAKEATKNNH
Ki [1],Ki [2],Structure (SMILES),also measured
< 0.05 µM,,"C[C@H](Nc1nccc(Nc2cc(C3CC3)[nH]n2)n1)c1c(F)ccc2[nH]ncc12 [II-61, (S)-N^4-(5-cyclopropyl-1H-pyrazol-3-yl)-N^2-(1-(5-fluoro-1H-indazol-4-yl)ethyl)pyrimidine-2,4-diamine]",
,< 0.05 µM,"Fc1cnc(NCc2cccc3[nH]cnc23)nc1Nc1cc(C2CC2)n[nH]1 [I-97, N^2-((3H-benzo[d]imidazol-4-yl)methyl)-N^4-(3-cyclopropyl-1H-pyrazol-5-yl)-5-fluoropyrimidine-2,4-diamine]",
,,"c1cc(Nc2cc(C3CC3)[nH]n2)nc(NCc2ccc3[nH]ccc3c2)n1 [I-15, N^2-((1H-Indol-5-yl)methyl)-N^4-(5-cyclopropyl-1H-pyrazol-3-yl)pyrimidine-2,4-diamine]",Ki: < 0.05 µM
< 0.05 µM,,"Fc1ccc2[nH]ccc2c1CNc1nccc(Nc2cc(C3CC3)[nH]n2)n1 [II-20, N^4-(5-cyclopropyl-1H-pyrazol-3-yl)-N^2-((5-fluoro-1H-indol-4-yl)methyl)pyrimidine-2,4-diamine]",
0.05 to 0.25 µM,,"COCCN(Cc1ccc2[nH]cnc2c1)c1nccc(Nc2cc(C3CC3)[nH]n2)n1 [II-35, N^2-((1H-benzo[d]imidazol-5-yl)methyl)-N^4-(5-cyclopropyl-1H-pyrazol-3-yl)-N^2-(2-methoxyethyl)pyrimidine-2,4-diamine]",
,,"c1cc(Nc2cc(C3CC3)[nH]n2)nc(NCc2ccc3[nH]cnc3c2)n1 [I-13, N^2-((1H-Benzo[d]imidazol-5-yl)methyl)-N^4-(5-cyclopropyl-1H-pyrazol-3-yl)pyrimidine-2,4-diamine]",Ki: < 0.05 µM
,< 0.05 µM,"C[C@H](Nc1nccc(Nc2cc([C@H]3C[C@H]3F)[nH]n2)n1)c1ccc2[nH]cnc2c1 [I-68, N^2—((S)-1-(1H-benzo[d]imidazol-5-yl)ethyl)-N^4-(5-((1R,2R)-2-fluorocyclopropyl)-1H-pyrazol-3-yl)pyrimidine-2,4-diamine]",
0.05 to 0.25 µM,,"Fc1cc(CNc2ncc(Cl)c(Nc3cc(C4CC4)[nH]n3)n2)c2cn[nH]c2c1 [II-106, 5-chloro-N^4-(5-cyclopropyl-1H-pyrazol-3-yl)-N^2-((6-fluoro-1H-indazol-4-yl)methyl)pyrimidine-2,4-diamine]",
< 0.05 µM,,"Cc1nc2c(CNc3nccc(Nc4cc(C5CC5)[nH]n4)n3)cc(Cl)cc2[nH]1 [II-17, N^2-((6-Chloro-2-methyl-1H-benzo[d]imidazol-4-yl)methyl)-N^4-(5-cyclopropyl-1H-pyrazol-3-yl)pyrimidine-2,4-diamine]",
,,"C[C@H](Nc1nccc(Nc2cc(C3CC3)[nH]n2)n1)c1ccc2[nH]cnc2c1 [I-5, N^2-[(1S)-1-(1H-Benzimidazol-5-yl)ethyl]-N^4-(5-cyclopropyl-1H-pyrazol-3-yl)pyrimidine-2,4-diamine]","Ki (Ki, Table I, PAK1 Ki class): < 0.05 µM"
,0.05 to 0.25 µM,Fc1cnc(NCc2cccc3[nH]ccc23)nc1Nc1cc(C2CC2)[nH]n1 [I-120],
,0.25 to 1 µM,"C[C@H](Nc1nccc(Nc2cc(C3CCCO3)[nH]n2)n1)c1ccc2[nH]ccc2c1 (stereo partly drawn) [I-116, N^2—((S)-1-(1H-indol-5-yl)ethyl)-N^4-(5-(tetrahydrofuran-2-yl)-1H-pyrazol-3-yl)pyrimidine-2,4-diamine]",
,,"C[C@@H](Nc1nccc(Nc2cc(C3CC3)[nH]n2)n1)c1ccc2[nH]ccc2c1 [I-60, (R)—N^2-(1-(1H-indol-5-yl)ethyl)-N^4-(5-cyclopropyl-1H-pyrazol-3-yl)pyrimidine-2,4-diamine]","Ki (Ki, Table I, PAK1 Ki class): > 1 µM"
,0.05 to 0.25 µM,"C[C@H](Nc1nccc(Nc2cc([C@H]3C[C@@H]3c3ccccc3F)[nH]n2)n1)c1ccc2[nH]cnc2c1 (stereo in doubt) [I-23, N^2—((S)-1-(1H-benzo[d]imidazol-5-yl)ethyl)-N^4-(5-((trans)-2-(2-fluorophenyl)cyclopropyl)-1H-pyrazol-3-yl)pyrimidine-2,4-diamine]",
,< 0.05 µM,"Clc1c(CNc2nccc(Nc3cc(C4CCCC4)[nH]n3)n2)ccc2[nH]cnc12 [I-107, N^2-((4-chloro-1H-benzo[d]imidazol-5-yl)methyl)-N^4-(5-cyclopentyl-1H-pyrazol-3-yl)pyrimidine-2,4-diamine]",
